{"source": "patent US20020169101A1", "about": "“Treatment of sexual dysfunction” (priority 1999, published 2002)", "key": {"[1]": {"target": "T1, human NMB receptor (BB1) (Homo sapiens, UniProt P28336)", "T1 construct": "expressed in transfected cells; membranes prepared from the cells", "T1 sequence (P28336 whole entry)": "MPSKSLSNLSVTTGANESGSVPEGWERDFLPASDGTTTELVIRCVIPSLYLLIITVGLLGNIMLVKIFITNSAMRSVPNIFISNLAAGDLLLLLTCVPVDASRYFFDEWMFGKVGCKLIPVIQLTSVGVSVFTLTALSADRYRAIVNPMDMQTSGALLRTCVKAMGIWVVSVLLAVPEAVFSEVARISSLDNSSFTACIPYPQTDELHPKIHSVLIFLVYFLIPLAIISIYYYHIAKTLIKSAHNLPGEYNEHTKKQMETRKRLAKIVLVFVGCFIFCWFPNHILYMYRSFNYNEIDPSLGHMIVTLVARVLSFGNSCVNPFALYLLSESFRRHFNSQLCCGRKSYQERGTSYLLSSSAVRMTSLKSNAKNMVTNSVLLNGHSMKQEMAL", "test": "BB1 binding assay ([125I][Tyr4]bombesin displacement, CHO-K1 membranes)", "conditions": "read-out: hBB1 Ki", "in_short": "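Membranes from CHO-K1 cells stably expressing human NMB (BB1) or GRP (BB2) receptors, in 50 mM Tris-HCl pH 7.4 with BSA and protease inhibitors, incubated with [125I][Tyr4]bombesin (<0.1 nM) for 60 min (BB1) or 90 min (BB2). Nonspecific binding defined with 1 μM bombesin; filtration and gamma counting; IC50 converted to Ki by Cheng-Prusoff.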"}, "[2]": {"system": "female rat sexual proceptivity", "test": "Female rat sexual proceptivity test (time investigating male vs female stimulus)", "type": "in vivo", "method": "Ovariectomised adult female Sprague Dawley rats (180-200 g, from Charles River) were housed in groups of 6 in a reversed lighting system of 12 h light:dark (lights off 7.00-19.00 h). Two weeks after ovariectomy they were used for sexual activity tests. The experiments started at least 5 h into the dark period.\nTests were carried out in a circular arena of 90 cm diameter, surrounded by a 30 cm high wall. Two small cages with wire-mesh front (15×15 cm) are fixed into the wall such that the front of the cage is <> with the wall and the 2 cages are opposite each other. They contained two stimuli animals: an intact sexually experienced male and a receptive female (ovariectomised, primed with 5 μg oestradiol benzoate dissolved in corn oil and injected subcutaneously 48 hours before the test and with 0.5 mg of progesterone four hours before the test). Sexually naive test and control animals were used. Forty eight hours before the tests, both the test and control animals were primed with 5 μg oestradiol benzoate. For animals used as positive controls, progesterone (0.5 mg/0.1 ml) was dissolved in corn oil and administered subcutaneously (s.c.), 4 h before the test. Test and control animals were introduced one at a time for 10 minute periods into the arena. During the 10 min test, the time that the test or positive control animal spent investigating each stimulus animal was noted. The arena was thoroughly cleaned between animals. The position of the male/female stimuli boxes was randomised between animals, in order to avoid place preference. The difference in the percentage of time spent investigating the male minus the female stimuli was calculated, out of the total time spent investigating stimuli animals.\nCompound (1) was dissolved in 100% β-cyclodextrin and then diluted with saline to a final solution of 50% 2-hydroxypropyl-β-cyclodextrin. It was administered intraperitoneally (i.p.) at doses of 3 and 10 mg/kg, in a dosing volume of 1 ml/kg, 1 h before tests. Progesterone (0.5 mg/0.1 ml) was dissolved in corn oil and administered subcutaneously (s.c.), 4 h before test, as a positive control.\nOvariectomised adult female Sprague Dawley rats (180-200 g) were housed in groups of 5 in a reversed lighting system of 12 h light:dark (lights off 5.00-17.00 h). They were used for the experiments at least two weeks after ovariectomy. Forty eight hours before tests, the animals were primed with oestradiol benzoate (5 μg/[…] in corn oil, s.c.). On day 1, progesterone (0.5 mg/0.1 ml, in corn oil, s.c.) was administered to one of the groups 4 h before tests, as a positive control. Compound (1) (15 mg/kg, i.p.) was administered in 50% 2-hydroxypropyl-β-cyclodextrin, 1 h before tests. The test lasted 10 minutes and was carried out as described before. The difference in the percentage of time spent investigating the male minus the female stimuli was calculated, out of the total time spent investigating stimuli animals. Animals were submitted to a test on day 1 and on day 15. From day 2 to 14 the Compound (1) group received a daily injection of the compound (15 mg/kg, i.p.), while both the vehicle and the progesterone groups received an injection of vehicle. On day 15 the test took place again, as described for day 1.\nOvariectomised female rats (Sprague Dawley, obtained from Charles River, UK) were stereotaxically implanted (coordinates 0.89 mm behind Bregma, 1.3 mm lateral and 2.5 mm vertical) with stainless steel cannulae (6 mm long, O.D. 0.75 mm), held in place with dental cement. Animals were housed in groups of three and returned to a reversed lighting system of 12 h light:dark (lights off 5.00-17.00 h). Correct placement of the cannulae was assessed post-mortem. Rats were used for tests two weeks after ovariectomy (one week after cannulation). The experiments started at least 5 h into the dark period. […]"}}, "note": "Entries after “also recorded” stand apart in the source; their conditions may differ."}
{"smiles": "C[C@@](Cc1c[nH]c2ccccc12)(NC(=O)Nc1ccc([N+](=O)[O-])cc1)C(=O)NCC1(c2ccc(N)cc2)CCCCC1", "note": "[Compound 3, (2S)-N-{[1-(4-aminophenyl)cyclohexyl]methyl}-3-(1H-indol-3-yl)-2-methyl-2-{[(4-nitroanilino)-carbonyl]amino}propanamide]", "values": [{"measurement": "Ki", "setting": "[1]", "result": 0.25, "unit": "nM"}]}
{"smiles": "COc1ccc(C2(CNC(=O)[C@](C)(Cc3c[nH]c4ccccc34)NC(=O)Nc3ccc([N+](=O)[O-])cc3)CCCCC2)nc1", "note": "[Compound (1), (S) 3-(1H-Indol-3-yl)-N-[1-(5-methoxy-pyridin-2-yl)-cyclohexyl-methyl]-2-methyl-2-[3-(4-nitro-phenyl)-ureido]-propionamide]", "values": [{"measurement": "body weight, general behaviour, tolerability on repeated administration", "setting": "[2]; 15 mg/kg i.p. daily for 15 days, female rats", "result": "no changes in body weight or general behaviour; also recorded: well tolerated"}, {"measurement": "proceptivity on day 1 vs vehicle", "setting": "[2]; Compound (1) 15 mg/kg i.p. 1 h before test, progesterone 0.5 mg s.c. 4 h before test (FIG. 3)", "result": "stimulatory effect on proceptivity"}, {"measurement": "percentage of time spent investigating the male stimulus", "setting": "[2]; i.c.v., 3-30 μg/rat, 10 min before test (FIG. 4)", "result": "dose-dependently (3-30 μg/rat) increased the percentage of time spent investigating the male stimulus"}, {"measurement": "percentage of time spent investigating the male stimulus", "setting": "[2]; i.p., 3 and 10 mg/kg, 1 h before test, vs vehicle (FIG. 1)", "result": "dose-dependently (3 mg/kg-10 mg/kg) increased the percentage of time spent investigating the male stimulus"}]}
